Assay results: US20210369710A1, “MODULATORS OF MYC FAMILY PROTO-ONCOGENE PROTEIN” (Nalo Therapeutics, priority 2019, published 2021)

Key:
MycN Protein = molecular target: T1, MycN Protein (Homo sapiens, UniProt P04198); assay: Degradation of MycN protein, Western blot band density in cells; assay type: cell-based; conditions: HL-60 or SKNBE2 cells; 6 uL of compound (1 mM) added to 3 mL cells; 6 hours; Western blot band density (ImageJ)
T1 construct: endogenous in cells; host or cells: HL-60 or SKNBE2
T1 sequence (P04198 1-464): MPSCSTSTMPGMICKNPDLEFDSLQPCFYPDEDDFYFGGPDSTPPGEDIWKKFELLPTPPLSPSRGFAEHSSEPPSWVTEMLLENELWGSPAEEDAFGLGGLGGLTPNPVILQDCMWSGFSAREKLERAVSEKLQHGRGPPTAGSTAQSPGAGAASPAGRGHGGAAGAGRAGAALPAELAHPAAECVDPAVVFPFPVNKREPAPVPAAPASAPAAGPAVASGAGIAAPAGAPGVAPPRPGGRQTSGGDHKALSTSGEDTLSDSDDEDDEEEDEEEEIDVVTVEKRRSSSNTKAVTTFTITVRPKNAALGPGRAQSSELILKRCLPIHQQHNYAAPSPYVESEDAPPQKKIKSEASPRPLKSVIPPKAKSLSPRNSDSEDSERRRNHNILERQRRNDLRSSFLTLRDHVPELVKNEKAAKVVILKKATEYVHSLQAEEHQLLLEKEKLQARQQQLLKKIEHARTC
Procedure, shortened: (§1)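 HL-60 leukemia or SKNBE2 neuroblastoma cells (3×10^6 per well, passages below 40) were exposed for 6 h to compound added from a 1 mM stock. RIPA lysates (25-30 ug protein) were run on SDS-PAGE and immunoblotted for c-Myc or MycN. Band density was quantified from the western images.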

MycC Protein = molecular target: T2, MycC Protein (Homo sapiens, UniProt P01106); assay: Degradation of MycC protein, Western blot band density in cells; assay type: cell-based; conditions: HL-60 or SKNBE2 cells; 6 uL of compound (1 mM) added to 3 mL cells; 6 hours; Western blot band density (ImageJ)
T2 construct: endogenous in cells; host or cells: HL-60 or SKNBE2
Procedure, shortened: as §1

T2 sequence (P01106 whole entry): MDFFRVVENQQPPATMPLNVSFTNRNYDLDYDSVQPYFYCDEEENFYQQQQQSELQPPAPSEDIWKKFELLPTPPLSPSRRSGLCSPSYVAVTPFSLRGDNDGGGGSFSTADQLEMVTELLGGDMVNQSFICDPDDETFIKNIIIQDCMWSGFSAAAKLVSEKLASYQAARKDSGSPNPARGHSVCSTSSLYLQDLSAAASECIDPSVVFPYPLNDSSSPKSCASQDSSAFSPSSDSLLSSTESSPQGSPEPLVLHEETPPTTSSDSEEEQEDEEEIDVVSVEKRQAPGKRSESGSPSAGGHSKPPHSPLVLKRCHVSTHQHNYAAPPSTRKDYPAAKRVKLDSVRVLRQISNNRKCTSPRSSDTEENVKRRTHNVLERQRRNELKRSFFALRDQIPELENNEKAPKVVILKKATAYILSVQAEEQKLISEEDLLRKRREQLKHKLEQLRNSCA

SMILES	Dmax at 2 µM (MycN Protein)	Dmax at 2 µM (MycC Protein)	% Degradation of MycN (MycN Protein)	% Degradation of MycC (MycC Protein)
O=C(N[C@@H]1CCC[C@H](C(F)(F)F)C1)N[C@H]1CC[C@H](Nc2nccc(Nc3cc(C4CCCC4)[nH]n3)n2)CC1 [Compound 35, 1-((1R,4R)-4-((4-((5-cyclopentyl-1H-pyrazol-3-yl)amino)pyrimidin-2-yl)amino)cyclohexyl)-3-((1R,3S/1S,3R)-3-(trifluoromethyl)cyclohexyl)urea]	80 to 100%	20 to 49%	–	–
Cc1cc(Nc2ccnc(N[C@H]3CC[C@H](NC(=O)N[C@H]4CC[C@H](S(C)(=O)=O)CC4)CC3)n2)n[nH]1 [Compound 32]	< 20%	< 20%	–	–
CO[C@H]1C[C@H](NC(=O)NC2CCC(Nc3nccc(Nc4cc(C5CCCC5)[nH]n4)n3)CC2)C1 (stereo partly drawn) [Compound 44, 1-((1R,4R)-4-((4-((5-cyclopentyl-1H-pyrazol-3-yl)amino)pyrimidin-2-yl)amino)cyclohexyl)-3-((1R,3R)-3-methoxycyclobutyl)urea]	< 20%	20 to 49%	–	–
CN(c1nccc(Nc2cc(C3CCC3)[nH]n2)n1)[C@H]1CC[C@H](NC(=O)NC2Cc3ccc(C#N)cc3C2)CC1 (stereo partly drawn) [Compound 144, 1-(5-cyano-2,3-dihydro-1H-inden-2-yl)-3-((1R,4R)-4-((4-((5-cyclobutyl-1H-pyrazol-3-yl)amino)pyrimidin-2-yl)(methyl)amino)cyclohexyl)urea]	50 to 79%	80 to 100%	–	–
O=C(Nc1cccc(C(F)(F)F)c1)N[C@H]1C[C@H](Nc2nccc(Nc3cc(C4CCCC4)[nH]n3)n2)C1 [Compound 96]	20 to 49%	20 to 49%	–	–
O=C(NC1CC2(COC2)C1)N[C@H]1CC[C@H](Nc2nccc(Nc3cc(C4CCCC4)[nH]n3)n2)CC1 [Compound 47]	< 20%	< 20%	–	–
CCc1cc(Nc2ccnc(N[C@H]3CC[C@H](NC(=O)NC4Cc5ccc(C#N)cc5C4)CC3)n2)n[nH]1 (stereo partly drawn) [Compound 8, 1-(5-cyano-2,3-dihydro-1H-inden-2-yl)-3-((1R,4R)-4-((4-((5-ethyl-1H-pyrazol-3-yl)amino)pyrimidin-2-yl)amino)cyclohexyl)urea]	< 20%	20 to 49%	–	–
CN(c1nccc(Nc2cc(C3CCCC3)[nH]n2)n1)C1CCC(NC(=O)N[C@H]2CCC[C@@H](C(F)(F)F)C2)CC1 (stereo partly drawn) [Compound 121 (Fraction 2), 1-((1R,4S)-4-((4-((5-cyclopentyl-1H-pyrazol-3-yl)amino)pyrimidin-2-yl)(methyl)amino)cyclohexyl)-3-((1S,3R)-3-(trifluoromethyl)cyclohexyl)urea]	–	–	*** (***: degradation 50-79%)	** (**: degradation 20-49%)
Cc1cc(Nc2ccnc(N[C@H]3CC[C@H](NC(=O)N[C@@H]4CCC[C@H](C(F)(F)F)C4)CC3)n2)n[nH]1 [Compound 104, 1-((1R,4R)-4-((4-((5-methyl-1H-pyrazol-3-yl)amino)pyrimidin-2-yl)amino)cyclohexyl)-3-((1R,3S)-3-(trifluoromethyl)cyclohexyl)urea]	20 to 49%	< 20%	–	–
O=C(NC1CCC(Nc2nccc(Nc3cc(C4CCCC4)[nH]n3)n2)CC1)NC1CC2(C1)CN(C1CC1)C2 [Compound 77, 1-((1R,4R)-4-((4-((5-cyclopentyl-1H-pyrazol-3-yl)amino)pyrimidin-2-yl)amino)cyclohexyl)-3-(2-cyclopropyl-2-azaspiro[3.3]heptan-6-yl)urea]	< 20%	20 to 49%	–	–
O=C(NC1CS(=O)(=O)C1)N[C@H]1CC[C@H](Nc2nccc(Nc3cc(C4CCCC4)[nH]n3)n2)CC1 [Compound 34]	< 20%	50 to 79%	–	–
O=C(NC1CCC(Nc2nccc(Nc3cc(C4CCCC4)[nH]n3)n2)CC1)NC1CCCN(C2CC2)C1 [Compound 60, 1-((1R,4R)-4-((4-((5-cyclopentyl-1H-pyrazol-3-yl)amino)pyrimidin-2-yl)amino)cyclohexyl)-3-(1-cyclopropylpiperidine-3-yl)urea]	< 20%	50 to 79%	–	–
Cc1cc(Nc2ccnc(N[C@H]3CC[C@H](NC(=O)NC4Cc5ccc(S(C)(=O)=O)cc5C4)CC3)n2)n[nH]1 (some centres unmarked) [Compound 115]	< 20%	< 20%	–	–
N#Cc1cccc(NC(=N)N[C@H]2CC[C@H](Nc3nccc(Nc4cc(C5CCCC5)[nH]n4)n3)CC2)c1 [Compound 87, 1-(3-cyanophenyl)-3-((1R,4R)-4-((4-((5-cyclopentyl-1H-pyrazol-3-yl)amino)pyrimidin-2-yl)amino)cyclohexyl)guanidine]	–	–	** (**: degradation 20-49%)	** (**: degradation 20-49%)
N#Cc1ccc2c(c1)CC(NC(=O)N[C@H]1CC[C@H](Nc3nccc(Nc4cc(C5CCCC5)[nH]n4)n3)CC1)C2 (stereo partly drawn) [Compound 11 (Fraction 2), 1-(5-cyano-2,3-dihydro-1H-inden-2-yl)-3-((1R,4R)-4-((4-((5-cyclopentyl-1H-pyrazol-3-yl)amino)pyrimidin-2-yl)amino)cyclohexyl)urea]	–	–	*** (***: degradation 50-79%)	**** (****: degradation 80-100%)
[H]/N=C(\Nc1cccc(C(F)(F)F)c1)N[C@H]1CC[C@H](Nc2nccc(Nc3cc(C4CCCC4)[nH]n3)n2)CC1 [Compound 81, 1-((1R,4R)-4-((4-((5-cyclopentyl-1H-pyrazol-3-yl)amino)pyrimidin-2-yl)amino)cyclohexyl)-3-(3-(trifluoromethyl)phenyl)guanidine]	< 20%	80 to 100%	–	–
N#Cc1ccc2c(c1)CC(NC(=O)N[C@H]1CC[C@H](Nc3nccc(Nc4cc(C5CCCC5)[nH]n4)n3)CC1)C2 (mixture of isomers) [Compound 11 (Racemic), 1-(5-cyano-2,3-dihydro-1H-inden-2-yl)-3-((1R,4R)-4-((4-((5-cyclopentyl-1H-pyrazol-3-yl)amino)pyrimidin-2-yl)amino)cyclohexyl)urea]	–	–	**** (****: degradation 80-100%)	**** (****: degradation 80-100%)
CC(=O)N1CC(NC(=O)N[C@H]2CC[C@H](Nc3nccc(Nc4cc(C5CCCC5)[nH]n4)n3)CC2)C1 [Compound 48, 1-(1-acetylazetidin-3-yl)-3-((1R,4R)-4-((4-((5-cyclopentyl-1H-pyrazol-3-yl)amino)pyrimidin-2-yl)amino)cyclohexyl)urea]	< 20%	20 to 49%	–	–
O=C(Nc1cccc(C(F)(F)F)c1)N[C@H]1CC[C@@H](Nc2nccc(Nc3cc(C4CCCC4)[nH]n3)n2)CC1 [Compound 40, 1-((1S,4S)-4-((4-((5-cyclopentyl-1H-pyrazol-3-yl)amino)pyrimidin-2-yl)amino)cyclohexyl)-3-(3-(trifluoromethyl)phenyl)urea]	50 to 79%	50 to 79%	–	–
